Measured values taken from patent publication US20230013669A1, “Antibacterial Treatment Using a Cannabinoid and an Active Agent” (priority 2019, published 2023).
Where “and” joins values, the source holds several entries; their conditions need not be identical. Equal values may be shown once.

System: Acinetobacter baumannii ATCC 19606 (GN_034)
Test: Synergy of cannabidiol with cell-wall disrupting agent (CBD MIC in combination, FICI)
Format: cell-based
Settings: for FICI range: CBD with Spero SPR206
Protocol: The compounds were stored short term at 4° C.
Analysis was performed using Microsoft Excel.

[1] = Example 6, GN_034, listed as CBD

## C=C(C)C1CCC(C)=CC1c1c(O)cc(CCCCC)cc1O (stereo not shown) [Cannabidiol, 2-[3-methyl-6-(1-methylethenyl)-2-cyclohexen-1-yl]-5-pentyl-1,3-benzenediol]
1st of 3 experiments
  FICI range: 0.25-8
3rd of 3 experiments
  FICI range: 1.5-16
CBD with Spero SPR206 at 0.25 μg/mL, 1st of 3 experiments, CBD MIC taken as 256 μg/mL
  FICI: 0.5
CBD with Spero SPR206 at 0.25 μg/mL, 3rd of 3 experiments, CBD MIC taken as 256 μg/mL
  FICI: 2
CBD with Spero SPR206 at 0.5 μg/mL, 1st of 3 experiments, CBD MIC taken as 256 μg/mL
  FICI: 1
CBD with Spero SPR206 at 0.5 μg/mL, 3rd of 3 experiments, CBD MIC taken as 256 μg/mL
  FICI: 3
CBD with Spero SPR206 at 1 μg/mL, 1st of 3 experiments, CBD MIC taken as 256 μg/mL
  FICI: 2
CBD with Spero SPR206 at 1 μg/mL, 3rd of 3 experiments, CBD MIC taken as 256 μg/mL
  FICI: 4.004 and 4.002
CBD with Spero SPR206 at 2 μg/mL, 1st of 3 experiments, CBD MIC taken as 256 μg/mL
  FICI: 4
CBD with Spero SPR206 at 2 μg/mL, 3rd of 3 experiments, CBD MIC taken as 256 μg/mL
  FICI: 8
CBD with Spero SPR206 at 4 μg/mL, 1st of 3 experiments, CBD MIC taken as 256 μg/mL
  FICI: 8
CBD with Spero SPR206 at 4 μg/mL, 3rd of 3 experiments, CBD MIC taken as 256 μg/mL
  FICI: 16
CBD with Spero SPR206 at […], 1st of 3 experiments, CBD MIC taken as 256 μg/mL
  FICI: 0.25
CBD with Spero SPR206 at […], 3rd of 3 experiments, CBD MIC taken as 256 μg/mL
  FICI: 1.5
CBD with Ticarcillin at 2 μg/mL, Acinetobacter baumannii ATCC 19606
  FICI: 0.625
CBD with Ticarcillin at 4 μg/mL, Acinetobacter baumannii ATCC 19606
  FICI: 1.0625
CBD with Ticarcillin at 8 μg/mL, Acinetobacter baumannii ATCC 19606
  FICI: 2
CBD with Ticarcillin at 16 μg/mL, Acinetobacter baumannii ATCC 19606
  FICI: 4
CBD with Ticarcillin at 32 μg/mL, Acinetobacter baumannii ATCC 19606
  FICI: 8
CBD with Ticarcillin at 64 μg/mL, Acinetobacter baumannii ATCC 19606
  FICI: 16
CBD with Ticarcillin, Acinetobacter baumannii ATCC 19606
  FICI range (MIC table): 0.63-16
Cefepime at 4 μg/mL
  CBD MIC with Cefepime: 32 µg/mL
Cefepime at 8 μg/mL
  CBD MIC with Cefepime: 16 µg/mL
Cefotetan at 4 μg/mL
  CBD MIC with Cefotetan: >32 µg/mL
Cefotetan at 4 μg/mL, Acinetobacter baumannii ATCC 19606
  CBD MIC with Cefotetan: >256 µg/mL
Cefotetan at 8 μg/mL
  CBD MIC with Cefotetan: >32 µg/mL
Cefotetan at 8 μg/mL, Acinetobacter baumannii ATCC 19606
  CBD MIC with Cefotetan: >256 µg/mL
Cefotetan at 16 μg/mL
  CBD MIC with Cefotetan: >32 µg/mL
Cefotetan at 16 μg/mL, Acinetobacter baumannii ATCC 19606
  CBD MIC with Cefotetan: >256 µg/mL
Cefotetan at 32 μg/mL
  CBD MIC with Cefotetan: >32 µg/mL
Cefotetan at 32 μg/mL, Acinetobacter baumannii ATCC 19606
  CBD MIC with Cefotetan: >256 µg/mL
Cefotetan at 64 μg/mL
  CBD MIC with Cefotetan: >32 µg/mL
Cefotetan at 64 μg/mL, Acinetobacter baumannii ATCC 19606
  CBD MIC with Cefotetan: >256 µg/mL
Cefotetan at 128 μg/mL
  CBD MIC with Cefotetan: >32 µg/mL
Cefotetan at 128 μg/mL, Acinetobacter baumannii ATCC 19606
  CBD MIC with Cefotetan: >256 µg/mL
Ceftazidime at 0.015 μg/mL as headed in Table 64, Acinetobacter baumannii ATCC 19606
  CBD MIC with Ceftazidime: >256 µg/mL
Ceftazidime at 0.031 μg/mL as headed in Table 64, Acinetobacter baumannii ATCC 19606
  CBD MIC with Ceftazidime: >256 µg/mL
Ceftazidime at 0.062 μg/mL as headed in Table 64, Acinetobacter baumannii ATCC 19606
  CBD MIC with Ceftazidime: >256 µg/mL
Ceftazidime at 0.25 μg/mL as headed in Table 64, Acinetobacter baumannii ATCC 19606
  CBD MIC with Ceftazidime: 16 µg/mL
Ceftazidime at 0.5 μg/mL (Table 66), Acinetobacter baumannii ATCC 19606
  CBD MIC with Ceftazidime: >32 µg/mL
Ceftazidime at 0.5 μg/mL as headed in Table 64, Acinetobacter baumannii ATCC 19606
  CBD MIC with Ceftazidime: 0.001 µg/mL
Ceftazidime at 1 μg/mL (Table 66), Acinetobacter baumannii ATCC 19606
  CBD MIC with Ceftazidime: >32 µg/mL
Ceftazidime at 2 μg/mL (Table 66), Acinetobacter baumannii ATCC 19606
  CBD MIC with Ceftazidime: >32 µg/mL
Ceftazidime at 4 μg/mL (Table 66), Acinetobacter baumannii ATCC 19606
  CBD MIC with Ceftazidime: 32 µg/mL
Ceftazidime at 8 μg/mL (Table 66), Acinetobacter baumannii ATCC 19606
  CBD MIC with Ceftazidime: 16 µg/mL
Ceftazidime at 16 μg/mL (Table 66), Acinetobacter baumannii ATCC 19606
  CBD MIC with Ceftazidime: 0.001 µg/mL
Ceftazidime at […] as headed in Table 64, Acinetobacter baumannii ATCC 19606
  CBD MIC with Ceftazidime: 32 µg/mL
Colistin at 0.031 μg/mL, Acinetobacter baumannii ATCC 19606
  CBD MIC with Colistin: 4 µg/mL
Colistin at 0.062 μg/mL, Acinetobacter baumannii ATCC 19606
  CBD MIC with Colistin: 2 µg/mL
Colistin at 0.25 μg/mL, Acinetobacter baumannii ATCC 19606
  CBD MIC with Colistin: 1 µg/mL
Colistin at 1 μg/mL, Acinetobacter baumannii ATCC 19606
  CBD MIC with Colistin: 0.001 µg/mL
Colistin at […], Acinetobacter baumannii ATCC 19606
  CBD MIC with Colistin: 1 µg/mL
Example 1
  activity of cannabidiol in combination with Polymyxin B: effective
Example 1, GN_034, cannabidiol + MCC_006636 (Polymyxin B)
  Average FICI score: 0.135
Example 1, GN_034, cannabidiol + MCC_006636 (Polymyxin B), synergy when FICI≤0.5
  Synergy: YES
Example 2
  activity of cannabidiol combined with cefuroxime: effective
Example 2, GN_034
  CBD MIC with Cefuroxime at concentration 4 μg/mL: >256 µg/mL
  CBD MIC with Cefuroxime at concentration 8 μg/mL: >256 µg/mL
  CBD MIC with Cefuroxime at concentration 16 μg/mL: 32 µg/mL
  CBD MIC with Cefuroxime at concentration 64 μg/mL: 0.0625 µg/mL
  CBD MIC with Cefuroxime at concentration 128 μg/mL: 0.0009766 µg/mL
Example 2, GN_034, listed as CBD
  CBD MIC with Cefuroxime at concentration 32 μg/mL: 16 µg/mL and 32 µg/mL
Example 3
  activity of cannabidiol combined with colistin: effective
Example 3, GN_034
  CBD MIC with Colistin at concentration 0.03125 μg/mL: 4 µg/mL
  CBD MIC with Colistin at concentration 0.0625 μg/mL: 2 µg/mL
  CBD MIC with Colistin at concentration 0.25 μg/mL: 1 µg/mL
  CBD MIC with Colistin at concentration 1 μg/mL: 0.0009766 µg/mL
  CBD MIC with Colistin at concentration […]: 1 µg/mL
Example 4
  activity of cannabidiol combined with octapeptin MCC_006442: effective
Example 5
  activity of cannabidiol combined with aztreonam: effective
  activity of cannabidiol combined with cefepime: effective
Example 5, GN_034
  CBD MIC with Aztreonam at concentration 0.5 μg/mL: >256 µg/mL
  CBD MIC with Aztreonam at concentration 1 μg/mL: >256 µg/mL
  CBD MIC with Aztreonam at concentration 2 μg/mL: >256 µg/mL
  CBD MIC with Aztreonam at concentration 4 μg/mL: 32 µg/mL
  CBD MIC with Aztreonam at concentration 8 μg/mL: 32 µg/mL
  CBD MIC with Aztreonam at concentration 16 μg/mL: 0.0009766 µg/mL
  CBD MIC with Cefepime at concentration 0.25 μg/mL: >256 µg/mL
  CBD MIC with Cefepime at concentration 0.5 μg/mL: >256 µg/mL
  CBD MIC with Cefepime at concentration 1 μg/mL: >256 µg/mL
  CBD MIC with Cefepime at concentration 2 μg/mL: >256 µg/mL
  CBD MIC with Cefepime at concentration 4 μg/mL: 32 µg/mL
  CBD MIC with Cefepime at concentration 8 μg/mL: 16 µg/mL
Example 6
  activity of cannabidiol combined with Polymyxin B: effective
Example 6, GN_034
  CBD MIC with Polymyxin B at concentration 0.015625 μg/mL: >256 µg/mL
  CBD MIC with Polymyxin B at concentration 0.03125 μg/mL: >256 µg/mL
  CBD MIC with Polymyxin B at concentration 0.0625 μg/mL: >256 µg/mL
  CBD MIC with Polymyxin B at concentration 0.5 μg/mL: 0.0009766 µg/mL
[1]
  CBD MIC with Polymyxin B at concentration 0.25 μg/mL: 8 µg/mL and 4 µg/mL
  CBD MIC with Polymyxin B at concentration […]: 16 µg/mL and 8 µg/mL
Example 7
  activity of cannabidiol in combination with octapeptin MCC_006442: effective
Example 12
  activity of cannabidiol combined with cefuroxime: effective
Example 14
  activity of cannabidiol combined with colistin: effective
Example 15
  activity of cannabidiol combined with octapeptin MCC_006442: effective
Example 18
  activity of cannabidiol combined with aztreonam: effective
Example 19
  activity of cannabidiol combined with cefepime: effective
Example 21
  activity of cannabidiol combined with octapeptin C4: effective
Example 22
  activity of cannabidiol in combination with Spero Potentiator SPR741: effective
  activity of cannabidiol in combination with Spero SPR206: effective
Example 23
  activity of cannabidiol in combination with octapeptin FADDI-287: effective
Example 24
  activity of cannabidiol in combination with MCC_8980: effective
Octapeptin C4 at 2 μg/mL, listed as CBD
  CBD MIC with Octapeptin C4: 16 µg/mL
Spero SPR206 at 1 μg/mL, 3rd of 3 experiments, listed as CBD
  CBD MIC with Spero SPR206: 0.5 µg/mL
Ticarcillin at 16 μg/mL, Acinetobacter baumannii ATCC 19606
  CBD MIC with Ticarcillin: 0.001 µg/mL
Ticarcillin at 32 μg/mL, Acinetobacter baumannii ATCC 19606
  CBD MIC with Ticarcillin: 0.001 µg/mL
Ticarcillin at 64 μg/mL, Acinetobacter baumannii ATCC 19606
  CBD MIC with Ticarcillin: 0.001 µg/mL
